Test results taken from patent US5691319A, “Pyrimidine nucleoside derivatives having anti-tumor activity, their preparation and use” (Sankyo Company, Limited, priority 1991, dated 1997).

Experiments:
mouse fibrosarcoma M5076 = assay: Anti-tumor activity against M5076 fibrosarcoma (sc implanted, BDF1 mice); format: in vivo; conditions: days 1, 4, 7, 10, 13 and 16; for 60 day survivors optimal dose / growth inhibition (%) optimal dose: oral; for 60 day survivors optimal dose: survivors/mice; for growth inhibition (%) optimal dose / growth inhibition (%) optimal dose/4: tumor size on twentieth day; for growth inhibition (%) optimal dose/4: optimal dose/4, oral
Experimental: The test animals used were female mice, 8-10 weeks old, of the BDF1 strain, weighing 20-25 g. The mice were purchased from Charles River Japan Inc., Kanagawa Japan. The mice were divided into experimental groups, each group containing 6 mice, and all mice within each group were treated identically. Each mouse was inoculated subcutaneously with 1×10^6 viable cells (the number of cells was measured by a dye exclusion method under microscopy) of the mouse fibrosarcoma M5076.
The test compounds listed in the following Table were dissolved in 0.2 ml of N,N-dimethylacetamide and the solution was mixed with 10% Emulphor (trade mark)-physiological saline on an agate mortar. The final concentration of N,N-dimethylacetamide was 5% v/v. The solution was administered orally on the first, fourth, seventh, tenth, thirteenth and sixteenth days following inoculation of the fibrosarcoma cells. The period for which the mice survived and the % inhibition of tumor growth were determined. A control group was not treated.
The anti-tumor effect is shown in the following Table 4 as the percent growth inhibition [GI (%)], calculated from the following equations [R. I. Geran et al., Cancer Chemother. Rept., 3 (1972)]:
TDt=average value of tumor sizes on the twentieth day in the treated group; and
TDc=average value of tumor sizes on the twentieth day in the control group;
tumor size=(tumor length+tumor width)/2.

p-388 leukemia = assay: Anti-tumor activity against p-388 leukemia (ip implanted, CDF1 mice); format: in vivo; conditions: for ILS (%) (increase in life span): days 1, 5 and 9; for 30 days survivors: days 1, 5 and 9, survivors/mice
Experimental: The test animals employed were female mice, 8 weeks of age, of the CDF1 strain, each weighing 21-25 g. The mice were divided into groups. each of 5 mice, and all mice within the group were treated identically. Into each mouse was implanted intraperitoneally 1×10^6 cells of the leukemia p-388.
The test compounds 1-9, 1-11, 1-15, 1-31 and 1-62 were dissolved in 0.2 ml of N,N-dimethylacetamide and the solution was mixed with 10% Emulphor (trade mark)-physiological saline on an agate mortar. Test compounds 1-34 and 1-41 were dissolved in a small amount of Tween 80 (registered trade mark) and immediately thereafter physiological saline was added to the solution form a suspension. The suspension was administered intraperitoneally on the first, fifth and ninth days following implantation of the leukemia cells. The period for which the mice survived was determined. A control group was treated identically, except that no active compound was administered.
The anti-tumor effect is shown in the following Table 3 as the increase in life span [ILS (%)], calculated from the following equation [R. I. Geran et al, Cancer Chemother. Rept., 3 (1972)]:
Dt=average number of days survival by the test group; and
Dc=average number of days survival by the control group.
In this test Dc was 9-10 days.

## CCCCCC(=O)Nc1ccn([C@@H]2O[C@H](CO)[C@@H](O)[C@@H]2C#N)c(=O)n1 [Compound 1-1, 2'-Cyano-2'-deoxy-N^4-hexanoyl-1-β-D-arabinofuranosylcytosine]
Mouse fibrosarcoma M5076
  60 day survivors optimal dose: 4/6
  growth inhibition (%) optimal dose: 97.7%
  growth inhibition (%) optimal dose/4: 61.1%

## CCCCCCCCCC(=O)Nc1ccn([C@@H]2O[C@H](CO)[C@@H](O)[C@@H]2C#N)c(=O)n1 [Compound 1-5, 2'-Cyano-N^4-decanoyl-2'-deoxy-1-β-D-arabinofuranosylcytosine]
Mouse fibrosarcoma M5076
  60 day survivors optimal dose: 3/6
  growth inhibition (%) optimal dose: 93.0%
  growth inhibition (%) optimal dose/4: 70.4%

## CCCCCCCCCCCCCC(=O)Nc1ccn([C@@H]2O[C@H](CO)[C@@H](O)[C@@H]2C#N)c(=O)n1 [Compound 1-9, 2'-Cyano-2'-deoxy-N^4-tetradecanoyl-1-β-D-arabinofuranosylcytosine]
p-388 leukemia; dose 200 mg/kg
  ILS (%) (increase in life span): > 200%
  30 days survivors: 4/5
Mouse fibrosarcoma M5076
  60 day survivors optimal dose: 5/6
  growth inhibition (%) optimal dose: 97.3%
  growth inhibition (%) optimal dose/4: 79.1%

## CCCCCCCCCCCCCCCC(=O)Nc1ccn([C@@H]2O[C@H](CO)[C@@H](O)[C@@H]2C#N)c(=O)n1 [Compound 1-11, 2'-Cyano-2'-deoxy-N^4-palmitoyl-1-β-D-arabinofuranosylcytosine]
p-388 leukemia; dose 50 mg/kg
  ILS (%) (increase in life span): 189%
  30 days survivors: 2/5
Mouse fibrosarcoma M5076
  60 day survivors optimal dose: 5/6
  growth inhibition (%) optimal dose: 99.2%
  growth inhibition (%) optimal dose/4: 90.2%

## CCCCCCCCCCCCCCCCCC(=O)Nc1ccn([C@@H]2O[C@H](CO)[C@@H](O)[C@@H]2C#N)c(=O)n1 [Compound 1-13, 2'-Cyano-2'-deoxy-N^4-stearoyl-1-β-D-arabinofuranosylcytosine]
Mouse fibrosarcoma M5076
  60 day survivors optimal dose: 4/6
  growth inhibition (%) optimal dose: 98.1%
  growth inhibition (%) optimal dose/4: 88.9%

## CCCCCCCCCCCCCCCCCCCC(=O)Nc1ccn([C@@H]2O[C@H](CO)[C@@H](O)[C@@H]2C#N)c(=O)n1 [Compound 1-15, 2'-Cyano-2'-deoxy-N^4-icosanoyl-1-β-D-arabinofuranosylcytosine]
p-388 leukemia; dose 100 mg/kg
  ILS (%) (increase in life span): 202%
  30 days survivors: 0/5
Mouse fibrosarcoma M5076
  60 day survivors optimal dose: 5/6
  growth inhibition (%) optimal dose: 96.5%
  growth inhibition (%) optimal dose/4: 88.7%

## COCOCCCCCCCCCC(=O)Nc1ccn([C@@H]2O[C@H](CO)[C@@H](O)[C@@H]2C#N)c(=O)n1 [Compound 1-31, 2'-Cyano-2'-deoxy-N^4-(10-methoxymethoxydecanoyl)-1-β-D-arabinofuranosylcytosine]
p-388 leukemia; dose 200 mg/kg
  ILS (%) (increase in life span): 152%
  30 days survivors: 0/5

## COCOCCCCCCCCCCCCCCCC(=O)Nc1ccn([C@@H]2O[C@H](CO)[C@@H](O)[C@@H]2C#N)c(=O)n1 [Compound 1-34, 2'-Cyano-2'-deoxy-N^4-(16-methoxymethoxyhexadecanoyl)-1-β-D-arabinofuranosylcytosine]
p-388 leukemia; dose 100 mg/kg
  ILS (%) (increase in life span): > 195%
  30 days survivors: 3/5
Mouse fibrosarcoma M5076
  60 day survivors optimal dose: 5/6
  growth inhibition (%) optimal dose: 96.0%
  growth inhibition (%) optimal dose/4: 87.2%

## COCCOCOCCCCCCCCCCCCCCCC(=O)Nc1ccn([C@@H]2O[C@H](CO)[C@@H](O)[C@@H]2C#N)c(=O)n1 [Compound 1-41, 2'-Cyano-2'-deoxy-N^4-(16-methoxyethoxymethoxyhexadecanoyl)-1-β-D-arabinofuranosylcytosine]
p-388 leukemia; dose 100 mg/kg
  ILS (%) (increase in life span): 159%
  30 days survivors: 2/5
Mouse fibrosarcoma M5076
  60 day survivors optimal dose: 5/6
  growth inhibition (%) optimal dose: 99.2%
  growth inhibition (%) optimal dose/4: 76.2%

## N#CCCCCCCCCCCC(=O)Nc1ccn([C@@H]2O[C@H](CO)[C@@H](O)[C@@H]2C#N)c(=O)n1 [Compound 1-62, 2'-Cyano-N^4-(11-cyanoundecanoyl)-2'-deoxy-1-β-D-arabinofuranosylcytosine]
p-388 leukemia; dose 200 mg/kg
  ILS (%) (increase in life span): 159%
  30 days survivors: 0/5
Mouse fibrosarcoma M5076
  60 day survivors optimal dose: 6/6
  growth inhibition (%) optimal dose: 99.0%
  growth inhibition (%) optimal dose/4: 83.3%
